Source: patent US4166125A, “2-Oxo-phenylbutanoic acid derivatives” (Grelan Pharmaceutical Co., Ltd., priority 1977, dated 1979)

How the values were obtained:
[1] = tested on: carrageenin edema; test: Inhibitory effect on carrageenin edema (oral administration); type: in vivo, rat (Sprague-Dawley strain)
Experimental: Inhibitory effect on carrageenin edema.
The experiment was carried out according to a method conforming to Van Arman, C. […] One hour after the administration of the test compound, 0.1 ml of 1% carrageenin solution in physiological saline was injected subcutaneously into the plantar sarface of the right hind paws of the rats. One hour after injection of carrageenin, the volume of the injected paws was measured hourly for 4 hours. Inhibition percent to carrageenin edema (%)* was calculated in comparison with the volume of paws of rats of a control group, to which only 0.3% CMC-Na solution was orally administered. [formula]

[2] = tested on: writhing syndrome due to acetic acid; test: Analgesic activity, stretching method (oral administration); type: in vivo, mouse (ddY-strain)
Experimental: The experiment was carried out according to a method conforming to Koster R. et al [Federation Proceedings 18, 412, (1960)]. […] 30 Minutes after administration of the test compound, 0.6% acetic acid aqueous solution was injected intraperitoneally to the mice in an amount of 0.1 ml per 10 g of body weight of the mouse, and then frequency of writhing syndrome due to acetic acid was counted for 20 minutes. Inhibition percent to the writhing syndrome was calculated in comparison with frequency of writhing syndrome counted on mice of a control group, to which only 1% gum arabic solution was orally administered.

[3] = tested on: gastric mucosa; test: Effect on gastric mucosa (2) (oral administration); type: in vivo, rat (Sprague-Dawley strain); details: rats, 4 hours
Experimental: 4 Hours after the administration, the rat was sacrificed with ether, and its stomach was removed. The stomach was treated with 5% formalin for 3 minutes, and gastric mucosa was observed under a stereoscopic microscope. When gastric lesion in the mucosa was found, the number of the lesion in the mucosa was counted.

[4] = Stability on storage at 50° C. and humidity of 70% for 1 month; type: physicochemical; details: among the compounds (I)
Experimental: For example, when the compounds (I) are kept at temperature of 50° C., and humidity of 70% for 1 month, no substantial change with respect to their appearances and values of quantitative analysis was observed, and no decomposition product was detected by thin-layer chromatography. Thus compounds (I) are prepared for administration in the form of pharmaceutical compositions according to conventional methods in the field of the art, and it is possible to prepare a pharmaceutical composition which comprises a therapeutically effective amount of at least one compound of the general formula (I) as an active ingredient, i.e. anti-inflammatory composition, in solid administration form (e.g. tablets, granules, powders, capsules, suppository), and liquid administration form (e.g. suspension, emulsion). In that case, as carrier, vehicle, solvent or dispersant, there may be used any of those which are known in the field of art. There may be exemplified water, starch, lactose, crystalline cellulose, magnesium stearate, hydroxypropyl cellulose, mannitol, carboxymethyl cellulose, glycol, ethanol, corn oil, peanut oil, castor oil, cacao butter, isocacao, polyoxyethylene stearate. […]

[5] = tested on: gross behaviour of the rats; test: Gross behaviour (2) (oral administration); details: oral, 500, 1000, 2000 and 4000 mg/Kg, 4 hours
Experimental: In 0.3% CMC-Na solution was suspended 2-oxo-3-[4-(1-oxo-2-isoindolinyl)phenyl]butanamide in at a concentration of 20%. The 20% CMC-Na suspension was administered orally to 3 male rats in each group (Sprague-Dawley strain) weighing 150 to 200 g. The dosage of the compound were 500, 1000, 2000 and 4000 mg/Kg. […] To rats of a control group was administered orally only 0.3% CMC-Na solution.

For `CC(C(=O)C(N)=O)c1ccc(N2Cc3ccccc3C2=O)cc1` (centres unmarked) [2-oxo-3-[4-(1-oxo-2-isoindolinyl)phenyl]butanamide], the “Inhibition to carrageenin edema” value ([1]; 12.5 mg/Kg oral, 3 hour after administration) was 29.2 ± 6.4%, the “Inhibition to carrageenin edema” value ([1]; 12.5 mg/Kg oral, 4 hour after administration) was 29.3 ± 4.4% and the “Inhibition to carrageenin edema” value ([1]; 25 mg/Kg oral, 3 hour after administration) was 29.2 ± 9.0%. For the same compound, the “Inhibition to carrageenin edema” value ([1]; 25 mg/Kg oral, 4 hour after administration) was 26.6 ± 8.2%, the “Inhibition to carrageenin edema” value ([1]; 50 mg/Kg oral, 3 hour after administration) was 35.6 ± 3.9% and the “Inhibition to carrageenin edema” value ([1]; 50 mg/Kg oral, 4 hour after administration) was 34.1 ± 1.2%. The “Inhibition to carrageenin edema” value ([1]; 100 mg/Kg oral, 3 hour after administration) was 51.0 ± 8.6%, the “Inhibition to carrageenin edema” value ([1]; 100 mg/Kg oral, 4 hour after administration) was 42.8 ± 6.9% and the ED40 ([1]; Rattus norvegicus, oral, from inhibition percent to edema at 3 hours after administration, read-out: ED40) was 48 mg/kg. For the same compound, the “Inhibition to writhing syndrome” value ([2]; 100 mg/Kg oral) was 4%, the “Inhibition to writhing syndrome” value ([2]; 200 mg/Kg oral) was 33% and the “Inhibition to writhing syndrome” value ([2]; 400 mg/Kg oral) was 62%. For the same compound, the “Dose-response of inhibition to writhing syndrome” value ([2]; dose range of 100 to 400 mg/Kg) was “clear dose-response”, the “Mean number of gastric lesion” value ([3]; 50 mg/Kg oral) was 0 and the “Mean number of gastric lesion” value ([3]; 100 mg/Kg oral) was 0. The “Mean number of gastric lesion” value ([3]; 200 mg/Kg oral) was 0.3, the “Mean number of gastric lesion” value ([3]; 400 mg/Kg oral) was 1.6 and the “Mean number of gastric lesion” value ([3]; 800 mg/Kg oral) was 0.4. For the same compound, the “Stability (in words)” value [4] was “more stable” and the “Abnormal behaviour (depression to spontaneous activity, loss of righting reflex, tremor, convulsion, abnormal gait, loss of pinna reflex, loss of corneal reflex, abnormality of respiration)” value [5] was “not observed”.
